# Experimental data taken from patent publication US7300946B2, “N-(substituted arylmethyl)-4-(disubstituted methyl) piperidines and pyridines” (Bayer CropScience AG, priority 2002, dated 2007).
# Test system: tobacco budworm (Heliothis virescens [Fabricius])
# Assay: surface-treated diet test against the tobacco budworm
# Type: in vivo
# Details: tobacco budworm second instar larvae, surface-treated diet, 0.25 millimoles of candidate insecticide on the surface of the diet, five-day exposure; for Percent Mortality: compared to total number of insects infested; for Percent Growth Inhibition: inhibition of insect weight relative to untreated controls
# Procedure, shortened: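 Wheat germ artificial diet surface-treated with 40 µL of 50 mM DMSO stock diluted 1:7 in 1:1 water/acetone (0.25 millimolar on diet), or sub-multiples for rate tests. One second-instar larva per well, 25° C, 60% RH, 5 days; percent weight inhibition vs DMSO controls and percent mortality.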
Compound,Percent Mortality [%],Percent Growth Inhibition [%]
CCn1nnc(-c2ccc(CN3CCC(C(OC(=O)Nc4ccc(-c5ccccc5)cc4)c4ccc(C(F)(F)F)cc4)CC3)cc2)n1 (centres unmarked) [Compound 297],100,100
CCn1nnc(-c2ccc(CN3CCC(C(OC(=O)Nc4ccc(Oc5ccccc5)cc4)c4ccc(C(F)(F)F)cc4)CC3)cc2)n1 (centres unmarked) [Compound 298],100,100
CCn1nnc(-c2ccc(CN3CCC(C(OC(=S)Nc4ccc(C(F)(F)F)cc4)c4ccc(OC(F)(F)F)cc4)CC3)cc2)n1 (centres unmarked) [Compound 302],100,100
CCn1nnc(-c2ccc(CN3CCC(C(OCc4ccc(C(F)(F)F)cc4)c4ccc(OC(F)(F)F)cc4)CC3)cc2)n1 (centres unmarked) [Compound 304],100,95
CCn1nnc(-c2ccc(CN3CCC(C(OCc4ccc(OC(F)(F)F)cc4)c4ccc(OC(F)(F)F)cc4)CC3)cc2)n1 (centres unmarked) [Compound 305],100,95
Cn1nnc(-c2ccc(COC(c3ccc(OC(F)(F)F)cc3)C3CCN(Cc4ccc(-c5nnn(C)n5)cc4)CC3)cc2)n1 (centres unmarked) [Compound 306],33,59
CCn1nnc(-c2ccc(CN3CCC(C(OC(=O)c4ccc(C(F)(F)F)cc4)c4ccc(OC(F)(F)F)cc4)CC3)cc2)n1 (centres unmarked) [Compound 307],100,92
CCn1nnc(-c2ccc(CN3CCC(C(OC(=O)c4ccc(OC(F)(F)F)cc4)c4ccc(OC(F)(F)F)cc4)CC3)cc2)n1 (centres unmarked) [Compound 308],100,92
Cn1nnc(-c2ccc(CN3CCC(C(NCc4ccccc4Cl)c4ccc(OC(F)(F)F)cc4)CC3)cc2)n1 (centres unmarked) [Compound 309],100,100
Cn1nnc(-c2ccc(CN3CCC(C(NCc4cccc(Cl)c4)c4ccc(OC(F)(F)F)cc4)CC3)cc2)n1 (centres unmarked) [Compound 310],100,100
Cn1nnc(-c2ccc(CN3CCC(C(NCc4ccc(Cl)cc4)c4ccc(OC(F)(F)F)cc4)CC3)cc2)n1 (centres unmarked) [Compound 311],100,100
Cn1nnc(-c2ccc(CN3CCC(C(NCc4ccc(Br)cc4)c4ccc(OC(F)(F)F)cc4)CC3)cc2)n1 (centres unmarked) [Compound 312],100,100
Cn1nnc(-c2ccc(CN3CCC(C(NCc4ccccc4F)c4ccc(OC(F)(F)F)cc4)CC3)cc2)n1 (centres unmarked) [Compound 313],100,100
Cn1nnc(-c2ccc(CN3CCC(C(NCc4cccc(F)c4)c4ccc(OC(F)(F)F)cc4)CC3)cc2)n1 (centres unmarked) [Compound 314],100,100
Cn1nnc(-c2ccc(CN3CCC(C(NCc4ccc(F)cc4)c4ccc(OC(F)(F)F)cc4)CC3)cc2)n1 (centres unmarked) [Compound 315],100,100
Cn1nnc(-c2ccc(CN3CCC(C(NCc4ccc(I)cc4)c4ccc(OC(F)(F)F)cc4)CC3)cc2)n1 (centres unmarked) [Compound 316],50,100
Cc1ccc(CNC(c2ccc(OC(F)(F)F)cc2)C2CCN(Cc3ccc(-c4nnn(C)n4)cc3)CC2)cc1 (centres unmarked) [Compound 317],100,100
COc1ccc(CNC(c2ccc(OC(F)(F)F)cc2)C2CCN(Cc3ccc(-c4nnn(C)n4)cc3)CC2)cc1 (centres unmarked) [Compound 318],100,100
Cn1nnc(-c2ccc(CN3CCC(C(NCc4ccc(OC(F)(F)F)cc4)c4ccc(OC(F)(F)F)cc4)CC3)cc2)n1 (centres unmarked) [Compound 319],100,100
Cn1nnc(-c2ccc(CN3CCC(C(NCc4ccc([N+](=O)[O-])cc4)c4ccc(OC(F)(F)F)cc4)CC3)cc2)n1 (centres unmarked) [Compound 320],100,100
Cn1nnc(-c2ccc(CN3CCC(C(NC(=O)c4ccccc4)c4ccc(OC(F)(F)F)cc4)CC3)cc2)n1 (centres unmarked) [Compound 321],17,95
Cn1nnc(-c2ccc(CN3CCC(C(NC(=O)c4ccccc4Cl)c4ccc(OC(F)(F)F)cc4)CC3)cc2)n1 (centres unmarked) [Compound 322],0,78

Compound,Percent Mortality [%],Percent Growth Inhibition [%]
Cn1nnc(-c2ccc(CN3CCC(C(NC(=O)c4cccc(Cl)c4)c4ccc(OC(F)(F)F)cc4)CC3)cc2)n1 (centres unmarked) [Compound 323],67,98
Cn1nnc(-c2ccc(CN3CCC(C(NC(=O)c4ccc(Cl)cc4)c4ccc(OC(F)(F)F)cc4)CC3)cc2)n1 (centres unmarked) [Compound 324],83,99
Cn1nnc(-c2ccc(CN3CCC(C(NC(=O)c4ccc(Br)cc4)c4ccc(OC(F)(F)F)cc4)CC3)cc2)n1 (centres unmarked) [Compound 325],50,100
Cn1nnc(-c2ccc(CN3CCC(C(NC(=O)c4ccccc4F)c4ccc(OC(F)(F)F)cc4)CC3)cc2)n1 (centres unmarked) [Compound 326],0,93
Cn1nnc(-c2ccc(CN3CCC(C(NC(=O)c4cccc(F)c4)c4ccc(OC(F)(F)F)cc4)CC3)cc2)n1 (centres unmarked) [Compound 327],0,99
Cn1nnc(-c2ccc(CN3CCC(C(NC(=O)c4ccc(F)cc4)c4ccc(OC(F)(F)F)cc4)CC3)cc2)n1 (centres unmarked) [Compound 328],0,95
Cn1nnc(-c2ccc(CN3CCC(C(NC(=O)c4ccc(I)cc4)c4ccc(OC(F)(F)F)cc4)CC3)cc2)n1 (centres unmarked) [Compound 329],50,99
Cc1ccc(C(=O)NC(c2ccc(OC(F)(F)F)cc2)C2CCN(Cc3ccc(-c4nnn(C)n4)cc3)CC2)cc1 (centres unmarked) [Compound 330],33,89
COc1ccc(C(=O)NC(c2ccc(OC(F)(F)F)cc2)C2CCN(Cc3ccc(-c4nnn(C)n4)cc3)CC2)cc1 (centres unmarked) [Compound 331],67,98
Cn1nnc(-c2ccc(CN3CCC(C(NC(=O)c4ccc(OC(F)(F)F)cc4)c4ccc(OC(F)(F)F)cc4)CC3)cc2)n1 (centres unmarked) [Compound 332],100,100
Cn1nnc(-c2ccc(CN3CCC(C(NC(=O)c4ccc([N+](=O)[O-])cc4)c4ccc(OC(F)(F)F)cc4)CC3)cc2)n1 (centres unmarked) [Compound 333],17,99
Cn1nnc(-c2ccc(CN3CCC(C(NC(=O)Nc4ccccc4Cl)c4ccc(OC(F)(F)F)cc4)CC3)cc2)n1 (centres unmarked) [Compound 334],100,100
Cn1nnc(-c2ccc(CN3CCC(C(NC(=O)Nc4cccc(Cl)c4)c4ccc(OC(F)(F)F)cc4)CC3)cc2)n1 (centres unmarked) [Compound 335],100,100
Cn1nnc(-c2ccc(CN3CCC(C(NC(=O)Nc4ccc(Cl)cc4)c4ccc(OC(F)(F)F)cc4)CC3)cc2)n1 (centres unmarked) [Compound 336],100,100
Cn1nnc(-c2ccc(CN3CCC(C(NC(=O)Nc4ccc(Br)cc4)c4ccc(OC(F)(F)F)cc4)CC3)cc2)n1 (centres unmarked) [Compound 337],100,100
Cn1nnc(-c2ccc(CN3CCC(C(NC(=O)Nc4ccccc4F)c4ccc(OC(F)(F)F)cc4)CC3)cc2)n1 (centres unmarked) [Compound 338],100,100
Cn1nnc(-c2ccc(CN3CCC(C(NC(=O)Nc4cccc(F)c4)c4ccc(OC(F)(F)F)cc4)CC3)cc2)n1 (centres unmarked) [Compound 339],50,100
Cn1nnc(-c2ccc(CN3CCC(C(NC(=O)Nc4ccc(F)cc4)c4ccc(OC(F)(F)F)cc4)CC3)cc2)n1 (centres unmarked) [Compound 340],83,100
Cn1nnc(-c2ccc(CN3CCC(C(NC(=O)Nc4ccc(I)cc4)c4ccc(OC(F)(F)F)cc4)CC3)cc2)n1 (centres unmarked) [Compound 341],100,100
Cc1ccc(NC(=O)NC(c2ccc(OC(F)(F)F)cc2)C2CCN(Cc3ccc(-c4nnn(C)n4)cc3)CC2)cc1 (centres unmarked) [Compound 342],100,100
COc1ccc(NC(=O)NC(c2ccc(OC(F)(F)F)cc2)C2CCN(Cc3ccc(-c4nnn(C)n4)cc3)CC2)cc1 (centres unmarked) [Compound 343],100,100
